Data published in US9089509B2, “Method of treatment of age-related macular degeneration” (YEDA RESEARCH AND DEVELOPMENT CO., LTD., priority 2006, dated 2015).

What was measured:
[1] = test system: Tg-AD mice (APPK595N, M596L+PS1ΔE9); assay: Cop-1 vaccination of Tg-AD mice: Aβ plaques, microglial phenotype and T cells in hippocampus (immunohistochemistry); assay type: in vivo, mouse
Method: For immunohistochemistry, tissue sections were treated with a permeabilization/blocking solution containing 10% FCS, 2% bovine serum albumin, 1% glycine, and 0.05% Triton X-100 (Sigma-Aldrich, St. Louis). Tissue sections were stained overnight at 4° C. with specified combinations of the following primary antibodies: rat anti-BrdU (1:200; Oxford Biotechnology, Kidlington, Oxfordshire, UK), goat anti-doublecortin (anti-DCX) (1:400; Santa Cruz Biotechnology, Santa Cruz, Calif.), and mouse anti-neuronal nuclear protein (anti-NeuN) (1:200; Chemicon). Secondary antibodies were FITC-conjugated donkey anti-goat, Cy-3-conjugated donkey anti-mouse, and Cy-3- or Cy-5-conjugated donkey anti-rat (1:200; Jackson ImmunoResearch, West Grove, Pa.). CD11b (MAC1; 1:50; BD—Pharmingen) or FITC-conjugated 113-4 was used for labeling of microglia. Anti-MHC-II Abs (rat, clone IBL-5/22; 1:50) was used to detect expression of cell-surface MHC-II proteins. To detect expression of CD11c hamster anti-CD11c (1:100; eBioscience, San Diego, Calif.) was used. Anti-Aβ (human amino-acid residues 1-17) (mouse, clone 6E10; Chemicon) was used to detect expression of human Aβ. Expression of IGF-I was detected by goat anti-IGF-I Abs (1:20; R&D Systems). Expression of TNF-α was detected by goat anti-TNF-α Abs (1:100; R&D Systems). T cells were detected with anti-CD3 polyclonal Abs (rabbit, 1:100; DakoCytomation, CA). Propidium iodide (1 μg/ml; Molecular Probes, Invitrogen, Carlsbad, Calif.), was used for nuclear staining.
Nineteen adult double-transgenic APPK595N, M596L+PS1ΔE9 mice of the B6C3-Tg (APPswe, PSEN1dE9) 85 Dbo/J strain (Borchelt et al., 1997) were purchased from The Jackson Laboratory (Bar Harbor, Me.) and were bred and maintained in the Animal Breeding Center of The Weizmann Institute of Science. All animals were handled according to the regulations formulated by the Weizmann Institute's Animal Care and Use Committee, and all experiments and procedures were approved by the Weizmann Institute's Animal Care and Use Committee.
(§1) Each mouse was subcutaneously injected five times with a total of 100 μg of high-molecular-weight (TV-5010 DS, from batch no. 486220205; Teva Pharmaceutical Industries, Petach Tikva, Israel) emulsified in 200 μl PBS, from experimental day 0 until day 24, twice during the first week and once a week thereafter.
(§2) For in-vivo experiments, the numbers of Aβ plaques and CD11b^+ microglia in the hippocampus were counted at 300-μm intervals in 6-8 coronal sections (30 μm) from each mouse. Neurogenesis in the dentate gyrus was evaluated by counting of pre-mature neurons (DCX^+), proliferating cells (BrdU^+), and newly formed mature neurons (BrdU^+/NeuN^+) in six coronal sections (370 μm apart) per mouse brain. To obtain an estimate of the total number of labeled cells per dentate gyrus, the total number of cells counted in the selected coronal sections from each brain was multiplied by the volume index (the ratio between the volume of the dentate gyrus and the total combined volume of the selected sections). Specificity of BrdU+/NeuN+ co-expression was assayed using the confocal microscope (LSM 510) in optical sections at 1-μm intervals. Quantification of CD3^+, CD11b^+ and CD11c^+ cells were analyzed from 30-50 Aβ-plaques of each mouse tested in this study. Cell counts, numbers of Aβ plaques, plaque areas, and intensity of NeuN staining per unit area in the dentate gyrus were evaluated automatically using Image-Pro Plus 4.5 software (Media Cybernetics, Carlsbad, Calif.).
We verified the presence of both transgenes in each mouse by PCR amplification of genomic DNA. Tg-AD mice aged approximately 8 months were then vaccinated subcutaneously with Cop-1 (n=6) twice during the first week and once a week thereafter. Age-matched untreated Tg-AD mice (n=7) and non-Tg littermates (n=6) served, respectively, as untreated-Tg and wild-type controls. Seven weeks after the first Cop-1 injection all the mice were euthanized and analyzed. […]

[2] = test system: Tg-AD mice (APPK595N, M596L+PS1ΔE9); assay: Cop-1 vaccination of Tg-AD mice: neurogenesis in hippocampal dentate gyrus (BrdU, NeuN, DCX); assay type: in vivo, mouse
Method: For BrdU staining, sections were washed with PBS and incubated in 2N HCl at 37° C. for 30 min. Sections were blocked for 1 h with blocking solution [PBS containing 20% normal horse serum and 0.1% Triton X-100, or PBS containing mouse immunoglobulin blocking reagent obtained from Vector Laboratories (Burlingame, Calif.)].
For immunohistochemistry, tissue sections were treated with a permeabilization/blocking solution containing 10% FCS, 2% bovine serum albumin, 1% glycine, and 0.05% Triton X-100 (Sigma-Aldrich, St. Louis). Tissue sections were stained overnight at 4° C. with specified combinations of the following primary antibodies: rat anti-BrdU (1:200; Oxford Biotechnology, Kidlington, Oxfordshire, UK), goat anti-doublecortin (anti-DCX) (1:400; Santa Cruz Biotechnology, Santa Cruz, Calif.), and mouse anti-neuronal nuclear protein (anti-NeuN) (1:200; Chemicon). […] Expression of IGF-I was detected by goat anti-IGF-I Abs (1:20; R&D Systems). Expression of TNF-α was detected by goat anti-TNF-α Abs (1:100; R&D Systems). T cells were detected with anti-CD3 polyclonal Abs (rabbit, 1:100; DakoCytomation, CA). […]
as §2, with “Specificity of BrdU+/NeuN+ co-expression was assayed using the confocal microscope (LSM 510) in optical sections at 1-μm intervals.” left out, “Cell counts, numbers of Aβ plaques, plaque areas, and intensity of NeuN staining per unit area in the dentate gyrus were evaluated automatically using Image-Pro Plus 4.5 software (Media Cybernetics, Carlsbad, Calif.).” left out

[3] = test system: retinal ganglion cells (RGCs); conditions: cited from earlier work
[4] = test system: Tg-AD mice (APPK595N, M596L+PS1ΔE9); assay: Morris water maze (MWM) spatial learning/memory in Cop-1-vaccinated Tg-AD mice; assay type: in vivo, mouse; conditions: acquisition and reversal tasks (FIGS. 7A-7B)
Method: as §1
Spatial learning/memory was assessed by performance on a hippocampus-dependent visuo-spatial learning task in the Morris water maze (MWM) and carried out as described (Lichtenwalner et al., 2001).
MWM behavior scores were analyzed using […]. Treatment group and trial block were used as sources of variation to evaluate the significance of differences between mean scores during acquisition trial blocks in the MWM.
Two weeks before the end of the experiment, all mice were tested in a Morris water maze (MWM) for cognitive activity, as reflected by their performance of a hippocampus-dependent spatial learning/memory task. […] Differences in cognitive performance were manifested in both the acquisition (FIG. 7A) and the reversal tasks (FIG. 7B).

[5] = vaccinated Tg-AD mice (FIG. 2D)

glatiramer acetate [Cop-1]
Aβ plaques in brain cryosections stained for human Aβ ([1]; s.c. vaccination, seven weeks after first injection, vs untreated Tg-AD mice (FIG. 2A)): very few | MHC-II expression by microglia adjacent to residual Aβ plaques [1, 5]: most of the microglia adjacent to residual Aβ plaques expressed MHC-II | TNF-α expression by microglia adjacent to residual Aβ plaques [1, 5]: hardly any of them expressed TNF-α | IGF-I expression by MHC-II+ microglia ([1]; vaccinated Tg-AD mice (FIG. 2F)): found to express IGF-I | CD11b+ cells that became CD11b+/CD11c+ cells (associated with Aβ-plaque) ([1]; vaccinated Tg-AD mice, 25% in untreated Tg-AD mice (FIG. 3C)): 87% | NeuN+ staining in hippocampal CA1 and dentate gyrus ([1]; vaccinated Tg-AD mouse relative to non-Tg littermate (FIG. 2A)): almost normal | area occupied by the plaques (Aβ-immunoreactivity) ([1]; vs age-matched untreated Tg-AD mice (FIG. 2J)): significantly smaller | total number of Aβ-plaques (30-μm hippocampal slice) ([1]; vs untreated Tg-AD mice (FIG. 2I)): significantly fewer plaques | CD11b+ microglia in hippocampus ([1]; vs untreated Tg-AD mice (FIG. 2K)): significantly fewer | T cells (CD3+) associated with Aβ-plaque ([1]; vs untreated Tg-AD mice (FIG. 2L)): significantly more | number of CD11b+ cells associated with Aβ-plaque ([1]; vs untreated Tg-AD mice (FIG. 3B)): significantly decreased | newly formed mature neurons (BrdU+/NeuN+) in dentate gyrus ([2]; compared to non-Tg littermates (FIG. 6B)): similar | pre-mature neurons (DCX+ cells) in dentate gyri ([2]; relative to non-Tg littermates (FIG. 6C)): slightly but significantly more | proliferating cells (BrdU+) in dentate gyrus ([2]; vs untreated-Tg counterparts (FIG. 6A)): significantly more | outcome of weekly administration of adjuvant-free agent ([3]; model of chronically elevated intraocular pressure (Bakalash et al., 2005)): neuroprotection | RGC loss ([3]; rat model of chronically high intraocular pressure, vaccination): significantly reduces RGC loss | MWM performance vs non-Tg littermates [4]: did not differ significantly | MWM performance vs untreated-Tg-AD mice [4]: superior to that of the untreated-Tg-AD mice
